According to US11453647B2, “Benzimidazole derivatives as adenosine receptor antagonists” (Merck Patent GmbH, priority 2017, dated 2022):

Key:
Format in all cases: cell-based
[1] = molecular target: T1, A2B receptors (Homo sapiens, UniProt P29275); assay: functional cAMP (HTRF) assay, recombinant HEK293 cells expressing human A2B receptor, agonist NECA; set-up: expressed in transfected cells; host or cells: HEK293
T1 sequence (P29275 1-332): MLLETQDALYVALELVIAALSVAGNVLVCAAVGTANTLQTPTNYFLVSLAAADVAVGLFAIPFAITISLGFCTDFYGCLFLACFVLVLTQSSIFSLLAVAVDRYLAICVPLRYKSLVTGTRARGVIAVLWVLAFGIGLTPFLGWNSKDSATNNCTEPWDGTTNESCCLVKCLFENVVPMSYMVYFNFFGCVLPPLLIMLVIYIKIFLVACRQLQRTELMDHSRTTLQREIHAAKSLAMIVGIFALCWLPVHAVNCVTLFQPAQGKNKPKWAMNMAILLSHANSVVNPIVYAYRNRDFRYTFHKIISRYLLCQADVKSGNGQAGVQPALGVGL

[2] = molecular target: T2, human A3 receptor (Homo sapiens, UniProt P0DMS8); assay: functional cAMP (HTRF) assay, recombinant CHO cells expressing human A3 receptor, forskolin, agonist IB-MECA
T2 construct: expressed in transfected cells; host or cells: CHO
T2 sequence (P0DMS8 1-318): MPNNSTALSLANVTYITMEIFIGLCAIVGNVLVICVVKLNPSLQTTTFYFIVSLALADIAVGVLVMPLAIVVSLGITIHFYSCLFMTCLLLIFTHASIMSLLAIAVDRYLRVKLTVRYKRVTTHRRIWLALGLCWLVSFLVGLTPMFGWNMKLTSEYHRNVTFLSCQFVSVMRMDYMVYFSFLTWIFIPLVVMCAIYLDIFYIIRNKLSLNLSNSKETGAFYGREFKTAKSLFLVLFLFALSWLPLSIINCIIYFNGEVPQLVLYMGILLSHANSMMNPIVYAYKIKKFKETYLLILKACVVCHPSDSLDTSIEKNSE
Procedure: (§1) The functional activities of human A2A, A2B, A1 and A3 receptors were determined by quantification of cAMP, being the second messenger for adenosine receptors.
(§2) For human A1 and A3 receptors, recombinant CHO cells, expressing either A1 or A3-receptor, were used. As both receptors couple to Gi proteins, the assay protocol was adapted:
(§3) Cells were seeded into 384-well plates, forskolin, test compounds and agonists (CPA for A1- and IB-MECA for A3-receptor) were added. After 30 min incubation, HTRF reagents (cAMP dynamic 2, Cis Bio) were added and the cellular cAMP levels were determined using the ENVISION (Perkin Elmer) plate reader. Obtained raw data were normalized against the inhibitor control and the neural control (DMSO) and the normalized data were fitted using GeneData software.

[3] = molecular target: T3, human A1 receptor (Homo sapiens, UniProt P30542); assay: functional cAMP (HTRF) assay, recombinant CHO cells expressing human A1 receptor, forskolin, agonist CPA
T3 construct: expressed in transfected cells; host or cells: CHO
T3 sequence (P30542 1-326): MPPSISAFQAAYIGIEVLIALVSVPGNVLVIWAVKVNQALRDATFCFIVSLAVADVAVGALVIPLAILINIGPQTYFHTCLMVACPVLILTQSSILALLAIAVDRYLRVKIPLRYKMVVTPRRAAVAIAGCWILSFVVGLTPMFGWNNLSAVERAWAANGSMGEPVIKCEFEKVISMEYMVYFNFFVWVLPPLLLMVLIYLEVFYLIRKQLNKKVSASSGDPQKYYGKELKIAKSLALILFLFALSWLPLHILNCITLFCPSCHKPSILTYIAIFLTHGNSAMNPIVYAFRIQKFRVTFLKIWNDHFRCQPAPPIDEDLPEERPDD
Procedure: as §1, §2, §3

[4] = molecular target: T4, human A2A receptor (Homo sapiens, UniProt P29274); assay: functional cAMP (HTRF) assay, recombinant HEK293 cells expressing human A2A receptor, agonist NECA
T4 construct: expressed in transfected cells; host or cells: HEK293
T4 sequence (P29274 whole entry): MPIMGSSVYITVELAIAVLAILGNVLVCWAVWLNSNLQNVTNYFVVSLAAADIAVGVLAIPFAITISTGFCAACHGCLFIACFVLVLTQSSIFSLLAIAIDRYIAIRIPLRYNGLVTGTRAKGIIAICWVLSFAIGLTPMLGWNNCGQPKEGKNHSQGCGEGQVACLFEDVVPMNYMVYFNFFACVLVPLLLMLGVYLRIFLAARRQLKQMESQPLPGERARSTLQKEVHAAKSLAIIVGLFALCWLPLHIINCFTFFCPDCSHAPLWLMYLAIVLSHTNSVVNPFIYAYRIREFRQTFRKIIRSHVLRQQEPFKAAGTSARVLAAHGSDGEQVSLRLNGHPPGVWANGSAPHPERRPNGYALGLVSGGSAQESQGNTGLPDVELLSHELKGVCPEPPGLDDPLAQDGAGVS

## COCCn1cc(C(=O)Nc2nc3c(-c4cnn(C)c4)ccc(OC)c3[nH]2)cn1 [compound 161, N-[7-methoxy-4-(1-methyl-1H-pyrazol-4-yl)-1H-1,3-benzodiazol-2-yl]-1-(2-methoxyethyl)-1H-pyrazole-4-carboxamide]
[1]
  IC50: < 1000 nM
[2]
  IC50: < 1000 nM
[3]
  IC50: > 1000 nM
[4]
  IC50: < 10 nM

## COc1ccc(-c2ccccc2)c2nc(NC(=O)c3cn(C)nc3C)[nH]c12 [compound 269, N-(7-methoxy-4-phenyl-1H-1,3-benzodiazol-2-yl)-1,3-dimethyl-1H-pyrazole-4-carboxamide]
[1]
  IC50: < 100 nM
[2]
  IC50: < 1000 nM
[3]
  IC50: > 1000 nM
[4]
  IC50: < 100 nM

## COc1ccc(-c2cccnc2)c2nc(NC(=O)C3CC3)[nH]c12 [compound 315, N-[7-methoxy-4-(pyridin-3-yl)-1H-1,3-benzodiazol-2-yl]cyclopropanecarboxamide]
[1]
  IC50: < 100 nM
[2]
  IC50: < 1000 nM
[3]
  IC50: > 1000 nM
[4]
  IC50: < 100 nM

## COc1ccc(-c2ccccc2)c2nc(NC(=O)c3ccc(N4CCOCC4)nc3)[nH]c12 [compound 8, N-(7-Methoxy-4-phenyl-1H-benzoimidazol-2-yl)-6-morpholin-4-yl-nicotinamide]
[1]
  IC50: > 1000 nM
[2]
  IC50: < 1000 nM
[3]
  IC50: > 1000 nM
[4]
  IC50: < 10 nM

## COc1ccc(C2CCOCC2)c2nc(NC(=O)c3cnn(C)c3)[nH]c12 [compound 224, N-[7-methoxy-4-(oxan-4-yl)-1H-1,3-benzodiazol-2-yl]-1-methyl-1H-pyrazole-4-carboxamide]
[1]
  IC50: < 100 nM
[2]
  IC50: < 1000 nM
[3]
  IC50: > 1000 nM
[4]
  IC50: < 10 nM

## CCCC1(c2ccc(OC)c3[nH]c(NC(=O)c4cnn(C)c4)nc23)CC1 [compound 232, N-[7-methoxy-4-(1-propylcyclopropyl)-1H-1,3-benzodiazol-2-yl]-1-methyl-1H-pyrazole-4-carboxamide]
[2]
  IC50: < 1000 nM
[3]
  IC50: > 1000 nM
[4]
  IC50: < 100 nM

## CCCC(CC)c1ccc(OC)c2[nH]c(NC(=O)c3cnn(C)c3)nc12 (centres unmarked) [compound 233, N-[4-(hexan-3-yl)-7-methoxy-1H-1,3-benzodiazol-2-yl]-1-methyl-1H-pyrazole-4-carboxamide]
[2]
  IC50: < 10 nM
[3]
  IC50: > 1000 nM
[4]
  IC50: < 100 nM

## COCCOCCn1cc(-c2ccc(OC)c3nc(NC(=O)N4CCC(C)(O)CC4)[nH]c23)cn1 [compound 230, 4-hydroxy-N-(4-methoxy-7-{1-[2-(2-methoxyethoxy)ethyl]-1H-pyrazol-4-yl}-1H-1,3-benzodiazol-2-yl)-4-methylpiperidine-1-carboxamide]
[2]
  IC50: > 1000 nM
[3]
  IC50: > 1000 nM
[4]
  IC50: < 100 nM

## COc1ccc(-c2ccc3c(cnn3C)c2)c2nc(NC(=O)N3CCC(C)(O)CC3)[nH]c12 [compound 273, 4-hydroxy-N-[7-methoxy-4-(1-methyl-1H-indazol-5-yl)-1H-1,3-benzodiazol-2-yl]-4-methylpiperidine-1-carboxamide]
[2]
  IC50: > 1000 nM
[3]
  IC50: > 1000 nM
[4]
  IC50: < 100 nM

## COc1ccc(-c2cccc3c2CCN3)c2nc(NC(=O)N3CCC(C)(O)CC3)[nH]c12 [compound 292, N-[4-(2,3-dihydro-1H-indol-4-yl)-7-methoxy-1H-1,3-benzodiazol-2-yl]-4-hydroxy-4-methylpiperidine-1-carboxamide]
[2]
  IC50: > 1000 nM
[3]
  IC50: < 10 nM
[4]
  IC50: < 100 nM

## COc1ccc(N2CCCCCC2)c2nc(NC(=O)N3CCC(C)(O)CC3)[nH]c12 [compound 216, N-[4-(azepan-1-yl)-7-methoxy-1H-1,3-benzodiazol-2-yl]-4-hydroxy-4-methylpiperidine-1-carboxamide]
[2]
  IC50: > 1000 nM
[3]
  IC50: > 1000 nM
[4]
  IC50: < 100 nM

## COc1ccc(-c2cnn(C3CN(C(=O)OC(C)(C)C)C3)c2)c2[nH]c(NC(=O)N3CCC(C)(O)CC3)nc12 [compound 245, tert-butyl 3-(4-{2-[(4-hydroxy-4-methylpiperidine-1-carbonyl)amino]-4-methoxy-1H-1,3-benzodiazol-7-yl}-1H-pyrazol-1-yl)azetidine-1-carboxylate]
[2]
  IC50: > 1000 nM
[3]
  IC50: > 1000 nM
[4]
  IC50: < 100 nM

## COc1ccc(C2CCOCC2)c2nc(NC(=O)c3cnc(C)o3)[nH]c12 [compound 234, N-[7-methoxy-4-(oxan-4-yl)-1H-1,3-benzodiazol-2-yl]-2-methyl-1,3-oxazole-5-carboxamide]
[2]
  IC50: < 1000 nM
[3]
  IC50: > 1000 nM
[4]
  IC50: < 10 nM

## COc1ccc(-c2ccnc3[nH]ccc23)c2[nH]c(NC(=O)N3CCC(C)(O)CC3)nc12 [compound 270, 4-hydroxy-N-(7-methoxy-4-{1H-pyrrolo[2,3-b]pyridin-4-yl}-1H-1,3-benzodiazol-2-yl)-4-methylpiperidine-1-carboxamide]
[2]
  IC50: > 1000 nM
[3]
  IC50: > 1000 nM
[4]
  IC50: < 100 nM

## COc1ccc(-c2cnn(C(F)F)c2)c2nc(NC(=O)N3CCC(C)(O)CC3)[nH]c12 [compound 229, N-{7-[1-(difluoromethyl)-1H-pyrazol-4-yl]-4-methoxy-1H-1,3-benzodiazol-2-yl}-4-hydroxy-4-methylpiperidine-1-carboxamide]
[2]
  IC50: > 1000 nM
[3]
  IC50: > 1000 nM
[4]
  IC50: < 100 nM

## COc1ccc(-c2cnn(C3CCOC3)c2)c2nc(NC(=O)N3CCC(C)(O)CC3)[nH]c12 (centres unmarked) [compound 241, 4-hydroxy-N-{4-methoxy-7-[1-(oxolan-3-yl)-1H-pyrazol-4-yl]-1H-1,3-benzodiazol-2-yl}-4-methylpiperidine-1-carboxamide]
[2]
  IC50: > 1000 nM
[3]
  IC50: > 1000 nM
[4]
  IC50: < 100 nM

## COc1ccc(-c2cnn(-c3ccccn3)c2)c2[nH]c(NC(=O)N3CCC(C)(O)CC3)nc12 [compound 231, 4-hydroxy-N-{4-methoxy-7-[1-(pyridin-2-yl)-1H-pyrazol-4-yl]-1H-1,3-benzodiazol-2-yl}-4-methylpiperidine-1-carboxamide]
[2]
  IC50: < 1000 nM
[3]
  IC50: < 1000 nM
[4]
  IC50: < 100 nM

## COc1ccc(C2CCOCC2)c2nc(NC(=O)C3(C#N)CC3)[nH]c12 [compound 226, 1-cyano-N-[7-methoxy-4-(oxan-4-yl)-1H-1,3-benzodiazol-2-yl]cyclopropane-1-carboxamide]
[2]
  IC50: > 1000 nM
[3]
  IC50: > 1000 nM
[4]
  IC50: < 100 nM

## COc1ccc(-c2ccccc2)c2nc(NC(=O)c3cncn3C)[nH]c12 [compound 254, N-(7-methoxy-4-phenyl-1H-1,3-benzodiazol-2-yl)-1-methyl-1H-imidazole-5-carboxamide]
[1]
  IC50: < 10 nM
[3]
  IC50: < 1000 nM
[4]
  IC50: < 10 nM

## COc1ccc(C2CCOCC2)c2nc(NC(=O)c3ccnc(N4CCC(C)(O)CC4)c3)[nH]c12 [compound 118, 2-(4-hydroxy-4-methylpiperidin-1-yl)-N-[7-methoxy-4-(oxan-4-yl)-1H-1,3-benzodiazol-2-yl]pyridine-4-carboxamide]
[1]
  IC50: > 1000 nM
[3]
  IC50: > 1000 nM
[4]
  IC50: < 10 nM

## COc1ccc(-c2ccc3cc[nH]c3c2)c2nc(NC(=O)N3CCC(C)(O)CC3)[nH]c12 [compound 272, 4-hydroxy-N-[4-(1H-indol-6-yl)-7-methoxy-1H-1,3-benzodiazol-2-yl]-4-methylpiperidine-1-carboxamide]
[1]
  IC50: < 100 nM
[3]
  IC50: > 1000 nM
[4]
  IC50: < 100 nM
